Reference: PMC3199943, “Screening the MayBridge Rule of 3 Fragment Library for Compounds That Interact with the Trypanosoma brucei myo-Inositol-3-Phosphate Synthase and/or Show Trypanocidal Activity” (Molecular Biology International, 2011)
Like-named read-outs stand apart in the source and are kept apart here.

What was measured:
HeLa cells = assay: cells; settings: for viability at 500 µM: 65 h; for HeLa Cells Alamar Blue: Supplementary Table 1
Outline: (§1)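 Seed HeLa/A549 at 2 × 10^4 cells/well in DMEM/10% FCS/2 mM L-Gln; treat ~65 h; add Alamar Blue, 5 h more.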

TbINO1 = target: T1, TbINO1 (Trypanosoma brucei brucei, UniProt Q5QQ46); assay: biochemical; type: binding
T1 sequence (Q5QQ46 1-528): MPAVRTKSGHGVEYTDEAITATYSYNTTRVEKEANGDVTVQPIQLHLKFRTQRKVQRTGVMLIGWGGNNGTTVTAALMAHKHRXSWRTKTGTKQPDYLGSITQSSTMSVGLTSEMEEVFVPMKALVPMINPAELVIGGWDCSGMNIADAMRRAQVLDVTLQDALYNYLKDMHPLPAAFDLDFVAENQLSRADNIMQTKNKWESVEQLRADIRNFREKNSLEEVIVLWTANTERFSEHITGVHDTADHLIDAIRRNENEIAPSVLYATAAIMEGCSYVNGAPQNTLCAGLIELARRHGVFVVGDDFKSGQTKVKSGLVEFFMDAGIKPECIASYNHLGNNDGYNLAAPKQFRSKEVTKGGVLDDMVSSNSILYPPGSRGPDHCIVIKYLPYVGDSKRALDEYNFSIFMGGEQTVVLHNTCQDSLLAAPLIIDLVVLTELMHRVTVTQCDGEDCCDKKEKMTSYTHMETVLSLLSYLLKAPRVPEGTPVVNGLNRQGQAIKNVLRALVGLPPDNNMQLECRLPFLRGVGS

A549 cells = assay: Cytotoxicity against A549 cells, Alamar Blue; type: cell-based; settings: Supplementary Table 1, compound 0.5 mM, percentage of controls (n=1); for viability at 500 µM: Homo sapiens, A549, 65 h
Outline: as §1

[1] = Homo sapiens, HeLa, read-out: HeLa Cells Alamar Blue
[2] = Homo sapiens, HeLa, read-out: HeLa Cells Alamar Blue (% survival)
[3] = Supplementary Table 1, compound 1mM, mean ± SD from Boltzman curve fitting, read-out: Tb Ino1 Tm Shift [˚C]
[4] = read-out: Tb Ino1 Tm Shift [˚C]
[5] = compound 0.5 mM, percentage of controls, mean ± SD (n=3) or SE (n=2)
[6] = Supplementary Table 1, compound 1mM, mean ± SD from Boltzman curve fitting

Row | Compound | viability at 500 µM (HeLa cells; [1]) | viability at 500 µM (A549 cells) | ΔTm at 1000 µM (TbINO1; [4]) | also measured
1 | O=C(O)c1ccccc1-c1ccco1 [compound 520, 2-(2-furyl)benzoic acid] | 73 ± 11.5% | 124% | – | viability at 500 µM (HeLa cells; [2]): 73 ± 11.5%; CC50 (HeLa cells; Homo sapiens, HeLa, read-out: HeLa ED50): > 20 mM; ΔTm at 1000 µM (TbINO1; read-out: TbIno1 Tm shift [°C]): 4.29 ± 0.07 °C
2 | N#Cc1cc(-c2ccccc2)oc1N [compound 477, 2‐amino‐5‐phenyl‐3‐furonitrile] | 98.3 ± 18.6% | 97.4% | – | ΔTm at 1000 µM (TbINO1; [3]): 0.04 ± 0.1 °C
3 | O=C(O)C1CCCCO1 (stereo not drawn) [compound 93, tetrahydropyran‐2‐carboxylic acid] | 97.5 ± 2.4% | 107% | 0.55 ± 0.06 °C | –
4 | Nc1ccccc1OC(F)(F)F [compound 418, 2‐(trifluoromethoxy)aniline] | 99.1 ± 14.1% | 97.9% | 0.14 ± 0.07 °C | –
5 | CCOC(=O)c1[nH]c(C)cc1C [compound 330, ethyl 3,5‐dimethyl‐1H‐pyrrole‐2‐carboxylate] | 122 ± 12.3% | 156% | 0.61 ± 0.06 °C | –
6 | N#CCc1ccc(O)cc1 [compound 98, 2‐(4‐hydroxyphenyl)acetonitrile] | 92.9 ± 6.5% | 115% | – | ΔTm at 1000 µM (TbINO1; [3]): 0.27 ± 0.05 °C
7 | CCc1ccc(CNC)cc1 [compound 180, N‐(4‐ethylbenzyl)‐N‐methylamine] | 99.8 ± 1.1% | 87% | 0.14 ± 0.08 °C | –
8 | OCc1ccc(CN2CCCC2)cc1 [compound 559, [4‐(pyrrolidin‐1‐ylmethyl)phenyl]methanol] | – | – | – | HeLa Cells Alamar Blue (HeLa cells; [5]): 91.7 ± 15.8 percentage of controls; Tb Ino1 Tm Shift [˚C] (TbINO1; [6]): 0.05 ± 0.08 °C; A549 Cells Alamar Blue (A549 cells): 110 percentage of controls
9 | O=C(O)c1nsc(Cl)c1Cl [compound 602, 4,5‐dichloroisothiazole‐3‐carboxylic acid] | 83.2 ± 12.5% | 68.2% | 0.1 ± 0.07 °C | –
10 | O=C(O)c1ccccc1F [compound 129, 2‐fluorobenzoic acid] | – | 126% | 0.13 ± 0.07 °C | viability at 500 µM (HeLa cells; Homo sapiens, HeLa, read-out: HeLa Cells Alamar Blue, Supplementary Table 1, compound 0.5 mM, percentage of controls, mean ± SD (n=3) or SE (n=2)): 78.6 ± 14.2%
11 | O=C(O)Cc1cc(F)cc(F)c1 [compound 359, 2‐(3,5‐difluorophenyl)acetic acid] | 108 ± 13.6% | 128% | 0.13 ± 0.06 °C | –
12 | Cc1cc(N)[nH]n1 [compound 6, 3‐methyl‐1H‐pyrazol‐5‐amine] | 102 ± 3.3% | 121% | 0.2 ± 0.06 °C | –
13 | Cn1nc(C(C)(C)C)cc1N [compound 216, 3‐(tert‐butyl)‐1‐methyl‐1H‐pyrazol‐5‐amine] | – | – | – | HeLa Cells Alamar Blue (HeLa cells; [5]): 80.1 ± 11.3 percentage of controls; Tb Ino1 Tm Shift [˚C] (TbINO1; [6]): 0.15 ± 0.07 °C; A549 Cells Alamar Blue (A549 cells): 56.7 percentage of controls
14 | O=C(O)c1cc2cccnc2s1 [compound 445, thieno[2,3‐b]pyridine‐2‐carboxylic acid] | 88 ± 8.1% | 45.2% | 0.61 ± 0.08 °C | –
15 | OCc1cc2cccnc2s1 [compound 311, thieno[2,3‐b]pyridin‐2‐ylmethanol] | 92 ± 11.8% | 77.5% | 0.8 ± 0.08 °C | –
16 | O=C(O)c1cnccc1C(F)(F)F [compound 553, 4‐(trifluoromethyl)nicotinic acid] | 102 ± 12.4% | 103% | 0.28 ± 0.07 °C | –
17 | OCc1ccc(-c2cccs2)s1 [compound 598, 2,2′-bithien-5-ylmethanol] | 78 ± 11.6% | 86.3% | – | viability at 500 µM (HeLa cells; [2]): 78 ± 11.6%; ΔTm at 1000 µM (TbINO1; read-out: TbIno1 Tm shift [°C]): 1.72 ± 0.06 °C
18 | CC(=O)N1CCC(C#N)CC1 [compound 207, 1‐acetylpiperidine‐4‐carbonitrile] | 90 ± 2.9% | 65.3% | 0.03 ± 0.07 °C | –
19 | CN1CCN(Cc2ccccc2N)CC1 [compound 670, 2‐[(4‐methylpiperazin‐1‐yl)methyl]aniline] | 94.6 ± 8.5% | 121% | – | ΔTm at 1000 µM (TbINO1; [3]): 0.05 ± 0.07 °C
20 | NC(=S)Nc1ccncc1 [compound 215, N‐(4‐pyridyl)thiourea] | 98.3 ± 16.5% | 59.6% | 0.03 ± 0.08 °C | –
